Tests used:
[1] = Superoxide trapping: reaction of nitrone with potassium superoxide and crown ether in benzene; conditions: for colour change / coloured product upon reaction with potassium superoxide: potassium superoxide (3 or 6 equiv.); for trapping of superoxide radical anion: in vitro, yielding UV-VIS identifiable orange products
Source text: Thus, the amounts of potassium superoxide and crown ether were increased to 5 equivalents. Still no product was observed. The result could be due to the fact that not enough superoxide radical anion was present because of poor solubility of potassium superoxide. Therefore, 20 equivalents of potassium superoxide and crown ether were directly treated with nitrone 22. These conditions gave a product in very low yield which was impossible to identify. Finally, nitrone 22 was directly treated using 6 equivalents of potassium superoxide. […] The product was identified as aldehyde 67 by observing the aldehyde-proton signal and the up-field shifting of the ethyl signal of the azulene ring.
The detection of superoxide with azulenysilane mononitrone 23 was based on the previous method as described (vida supra). Six equivalents of potassium superoxide were used as before. As mentioned earlier, the previous reaction was monitored by observing an orange product on TLC. […] Based on the previous mechanism, it was expected to obtain the end product bis-aldehyde 72. However, ^1H NMR spectral information of the orange end product indicated the loss of the silyl group, and presence of only the mono-aldehyde. The low resolution mass spectrum detected a MH^+ of 448. Unfortunately, it was not possible to purify enough for the NMR characterization. […] It is believed that the superoxide spin adduct that formed was unstable and fragmented into another compound rather than the expected one. The loss of the silyl group could result after rearrangement via a nucleophilic attack on silicon by a second superoxide anion since an excess of superoxide anion was used and due to the high affinity of silicon towards oxygen.
The unidentified end product from superoxide radical anion with nitrone 23 led us to synthesize an analogue, the isoxazoline azulenylsilanenitrone 24, and test it for its possible utility in superoxide detection. Using the same method as described earlier, superoxide was solubilized in benzene by employing in acrown ether. The only difference in this case was the use of three equivalents of potassium superoxide instead of six equivalents. […] As in the previous case, aldehyde product 73 was expected to be formed. […] With HRMS and NMR spectral analyses, the orange product was identified as amide 74.
Guanylhydrazone nitrone 25 is a congener of nitrone 24. Incorporation of guanylhydrazone moiety may make it mitochondriotropic, and thereby render it useful to detect superoxide anion present in the mitochondria. […] The brownish orange end product was isolated and identified as amide 80 using low resolution mass spectrum (MH^+=654) which is analogous to the end product 74. In addition to amide 80, a trace of another orange product was also observed which is identified as amide 81 (MH^+=768) analogous to amide 79.
6 mg of nitrone 22 (0.0163 mmol) was mixed with 6.9 mg of potassium superoxide (0.097 mmol, 6 equiv.) and 8.6 mg of crown ether (0.032 mmol, 2 equiv.) and dissolved the mixture in 1 ml of benzene. The reaction was stirred for 3 hr at room temperature. The product was washed with 10 ml of saturated sodium chloride several times, dried over magnesium sulfate and concentrated. The mixture was purified by column chromatography using 5:5 hexane:ethylacetate to give 2.2 mg of crude 67 (43%). It was not possible to obtain 67 pure enough for definitive NMR characterization. […] When the same reaction was stirred for three days, another orange product was observed. […] Impossible to isolate this product in pure form, the structure was not identified.
20 mg of nitrone 24 was treated with 7.5 mg of potassium superoxide and 18.6 mg of crown ether in 1 ml of benzene. The reaction was stirred for 16 hr at room temperature. The mixture was then washed with 10 ml of saturated sodium chloride several times, dried and concentrated. […]

[2] = in cyclohexane; cited from earlier work
[3] = format: physicochemical
Procedure: Solutol HS 15 is a non-ionic solubilizer and emulsifying agent produced from 1 mole of 12-hydroxystearic acids and 15 moles of ethylene oxide. […] To prepare the concentration of 0.64 mg/ml of nitrone 25 in 3:7 solutol HS 15:1% saline solution, 1 ml of solutol HS 15 was heated until it turned into a clear liquid and cooled to room temperature. Meanwhile, 2.1 mg of nitrone 25 was crushed to a fine powder and dissolved in 1 ml of clear solutol HS 15. It was then diluted with 2.3 ml of 1% saline solution in water with frequent shaking and warming. It was then cool to room temperature to obtained green solution. The green solution was kept in a freezer, and found to be stable. The aqueous formulation of nitrone 25 with solutol HS 15 is believed to be amenable for mitochondrial superoxide detection and other biological studies.

[4] = Fluorescence and quantum yield of superoxide trapping product in ethanol; format: physicochemical; conditions: excitation wavelength 390 nm
Procedure: The UV-vis (ultra visible) absorption spectrum and fluorescence of chromotropic amide 74 was measured in ethanol. […] The fluorescence signal, indicated by red signal, was obtained by irradiating at the excitation wavelength 390 nm as shown in the spectrum. The wavelength dependence of the intensity of emitted light has been recorded at ˜490 nm (emission). The quantum yield of amide was measured at 2.7%. […] This, in addition to its chromotropic behavior, may bring an advantage over conventional cyclic nitrones which require ESR for superoxide detection.
All of the moisture sensitive reactions have been carried out using syringe septum rubber cap technique under N2 or Ar atmosphere or in a vial by flushing N2 or Ar gas into it. […] All of the reactions were monitored by TLC analysis (Whatman pre-coated silica gel F254 plates, 250 μm layer thickness), and visualization was achieved by 254 nm UV light. The crude reaction mixtures have been purified by column chromatography using 60 A (200-300 mess) on silica gel. ^1H and ^13C NMR spectra were recorded on Bruker AVANCE-400 spectrometer in CDCl3. Chemical shifts were measured in parts per million with residual solvent peak used as an internal standard. ^1H NMR spectra were run at 400 MHz and ^13C NMR spectra were recorder at […] with proton decoupled sequence. […] UV-vis spectrum was recorded using a Varian Cary 50 Bio spectrophotometer. […]

[5] = crown ether, benzene, room temperature

## Cc1c2cccccc-2c(C)c1[Si](C)(C)C(C)(C)C [nitrone 40, 2-tert-butyldimethylsilyl-1,3-dimethylazulene]
[1]; [5]
  colour change / coloured product upon reaction with potassium superoxide: turned into brownish orange

## CC(C)(C)N1OC(c2ccccc2)=C(C#N)C1c1c2cccccc-2c(/C=[N+](\[O-])C(C)(C)C)c1[Si](C)(C)C(C)(C)C (stereo not shown) [nitrone 24, 2-tert-butyl-3-[2-(tert-butyldimethyl-silanyl)-3-nitrone-azulen-1-yl]-5-phenyl-2,3-dihydro-isoxazole-4-carbonitrile]
[1]
  trapping of superoxide radical anion: trap superoxide radical anion efficiently
[1]; [5]
  colour change / coloured product upon reaction with potassium superoxide: completely turned into orange solution

## C(#Cc1c2ccccc2c(C#Cc2ccccc2)c2ccccc12)c1ccccc1 [9,10-bis(phenylethynyl)anthracene]
[2]
  quantum yield (QY) of fluorescence standard: 1.0

## [H]/N=C(\N)N/N=C/c1cccc(C#Cc2cccc(C3=C(C#N)C(c4c5cccccc-5c(/C=[N+](\[O-])C(C)(C)C)c4[Si](C)(C)C(C)(C)C)N(C(C)(C)C)O3)c2)c1 (stereo not shown) [nitrone 25, 2-tert-butyl-3-[2-(tert-butyldimethyl-silanyl)-3-nitrone-azulen-1-yl]-5-[3-(3-guanylhydrazone-phenylethynyl)-phenyl]-2,3-dihydro-isoxazole-4-carbonitrile]
[1]
  trapping of superoxide radical anion: trap superoxide efficiently
[1]; listed as 25
  trapping of superoxide radical anion: trap superoxide radical anion efficiently
[3]
  concentration in solution: 640 µg/mL
  effect of solutol HS 15 on solubility in water: increase the solubility
  stability of solution: stable
  water solubility: poorly water soluble

## CCc1c2cccccc-2c(C=O)c1O[Si](C)(C)C(C)(C)C [aldehyde 67]
[1]; under the superoxide reaction conditions, decomposed as reaction proceeded
  stability of aldehyde end product: very unstable

## CCc1c2cccccc-2c(/C=[N+](\[O-])C(C)(C)C)c1[Si](C)(C)C(C)(C)C [nitrone 22, 2-terbutyldimethylsilyl-1ethyl-3-azulenylnitrone]
[1]
  trapping of superoxide radical anion: trap superoxide radical anion efficiently
[1]; one to five equivalents of potassium superoxide and one equivalent of crown ether in benzene, room temperature
  reaction with superoxide: No reaction was observed
[1]; [5]
  colour change / coloured product upon reaction with potassium superoxide: less polar orange product

## CC(C)(C)NC(=O)c1c2cccccc-2c2c(NC(C)(C)C)c(C(=O)c3ccccc3)c(=N)oc12 [amide 74]
[4]
  fluorescence emission wavelength: ~490 nm
  fluorescence quantum yield: 2.7%

## CC(C)(C)/[N+]([O-])=C/c1c2cccccc-2c(C=O)c1[Si](C)(C)C(C)(C)C [nitrone 23, 2-tert-butyldimethylsilyl-3-formyl-azulene-1-nitrone]
[1]
  trapping of superoxide radical anion: trap superoxide radical anion efficiently
[1]; [5]
  colour change / coloured product upon reaction with potassium superoxide: turned completely from green to orange
[1]; six equivalents of potassium superoxide, crown ether, benzene
  time for reaction mixture to turn completely from green to orange: 90 min

Source: patent US9156862B2, “Silylated azulenyl nitrone spin traps as chromotropic superoxide detectors” (THE FLORDIA INTERNATIONAL UNIVERSITY BOARD OF TRUSTEES, priority 2011, dated 2015)
